Experimental data: ChEMBL document CHEMBL4052762, “Synthesis and biological evaluation of pyrrole-based chalcones as CYP1 enzyme inhibitors, for possible prevention of cancer and overcoming cisplatin resistance” (Bioorg Med Chem Lett, 2017)

Legend:
Cytochrome P450 2C9 = Cytochrome P450 2C9 (Homo sapiens, UniProt P11712); assay: Inhibition of human CYP2C9 expressed in HEK293 cells using fluorogenic 3-cyano-7-ethoxycoumarin as preincubated for 30 mins followed by substrate addition measured for 60 mins by fluorescence assay; assay type: ADME, cell-based
Homo sapiens [1] = species on record: Homo sapiens; assay: Selectivity ratio of IC50 for human CYP2C9 bound to yeast microsomal membrane to IC50 for human CYP1A2 bound to yeast microsomal membrane
Homo sapiens [2] = species on record: Homo sapiens; assay: Selectivity ratio of IC50 for human CYP2C19 bound to yeast microsomal membrane to IC50 for human CYP1A2 bound to yeast microsomal membrane
[3] = target: T1, Aryl hydrocarbon receptor (Homo sapiens, UniProt P35869); assay: Antagonist activity at human AhR expressed in Saccharomyces cerevisiae W303-1A (ATCC 208352) transformed with an episomal plasmid containing a minimal CYC1 promoter, with a concatemer of five XRE enhancer sequences, linked to eGFP reporter gene and co-expressing ARNT assessed as inhibition of B[a]P agonist induced XRE-driven eGFP expression by measuring eGFP units at 5 uM after 18 hrs by …
T1 sequence (P35869 whole entry): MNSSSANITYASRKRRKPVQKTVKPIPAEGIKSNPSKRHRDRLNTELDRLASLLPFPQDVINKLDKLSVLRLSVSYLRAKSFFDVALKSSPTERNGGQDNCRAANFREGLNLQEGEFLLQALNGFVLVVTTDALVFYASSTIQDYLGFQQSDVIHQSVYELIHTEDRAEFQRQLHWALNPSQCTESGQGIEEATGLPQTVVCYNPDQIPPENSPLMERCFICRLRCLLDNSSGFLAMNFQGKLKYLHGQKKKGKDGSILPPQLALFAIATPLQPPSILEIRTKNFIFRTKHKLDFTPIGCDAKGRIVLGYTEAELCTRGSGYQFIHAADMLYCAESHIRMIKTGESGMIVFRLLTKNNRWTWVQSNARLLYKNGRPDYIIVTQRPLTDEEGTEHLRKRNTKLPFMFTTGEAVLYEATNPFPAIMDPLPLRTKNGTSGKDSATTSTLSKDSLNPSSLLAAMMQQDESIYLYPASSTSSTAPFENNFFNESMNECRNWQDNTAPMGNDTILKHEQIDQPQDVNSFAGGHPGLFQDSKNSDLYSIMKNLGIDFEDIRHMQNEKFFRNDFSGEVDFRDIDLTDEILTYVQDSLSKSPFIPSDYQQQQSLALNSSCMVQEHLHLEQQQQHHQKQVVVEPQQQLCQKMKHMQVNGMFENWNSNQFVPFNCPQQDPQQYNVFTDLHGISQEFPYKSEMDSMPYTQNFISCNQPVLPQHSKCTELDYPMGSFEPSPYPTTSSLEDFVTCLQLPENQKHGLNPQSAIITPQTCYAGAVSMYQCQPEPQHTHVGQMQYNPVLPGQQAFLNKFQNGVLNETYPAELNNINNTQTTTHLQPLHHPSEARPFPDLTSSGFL

Cytochrome P450 3A4 = Cytochrome P450 3A4 (Homo sapiens, UniProt P08684); assay: Inhibition of human CYP3A4 expressed in HEK293 cells using fluorogenic dibenzylfluorescein as substrate preincubated for 30 mins followed by substrate addition measured for 60 mins by fluorescence assay; assay type: ADME, cell-based
Homo sapiens [4] = species on record: Homo sapiens; assay: Selectivity ratio of IC50 for human CYP2C19 bound to yeast microsomal membrane to IC50 for human CYP1A1 bound to yeast microsomal membrane
Cytochrome P450 1B1 [5] = target: T2, Cytochrome P450 1B1 (Homo sapiens, UniProt Q16678); assay: Inhibition of human CYP1B1 expressed in HEK293 cells using fluorogenic 7-ethoxyresorufin as substrate preincubated for 30 mins followed by substrate addition measured for 60 mins by fluorescence assay; assay type: cell-based
T2 sequence (Q16678 whole entry): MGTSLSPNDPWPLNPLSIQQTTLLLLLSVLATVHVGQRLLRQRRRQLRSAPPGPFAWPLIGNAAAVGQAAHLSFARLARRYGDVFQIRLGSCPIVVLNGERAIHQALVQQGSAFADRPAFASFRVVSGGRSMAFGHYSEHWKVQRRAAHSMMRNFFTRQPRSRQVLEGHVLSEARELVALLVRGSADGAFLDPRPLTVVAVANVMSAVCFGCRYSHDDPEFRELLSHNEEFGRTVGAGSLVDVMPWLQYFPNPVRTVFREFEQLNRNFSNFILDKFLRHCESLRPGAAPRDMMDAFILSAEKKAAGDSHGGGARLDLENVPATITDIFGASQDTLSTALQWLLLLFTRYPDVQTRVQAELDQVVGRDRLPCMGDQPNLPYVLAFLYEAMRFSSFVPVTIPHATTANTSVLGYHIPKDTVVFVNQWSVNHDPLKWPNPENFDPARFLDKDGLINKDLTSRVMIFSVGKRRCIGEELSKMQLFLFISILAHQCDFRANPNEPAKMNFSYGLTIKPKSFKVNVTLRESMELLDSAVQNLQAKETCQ

Homo sapiens [6] = species on record: Homo sapiens; assay: Selectivity ratio of IC50 for human CYP2C19 bound to yeast microsomal membrane to IC50 for human CYP1B1 bound to yeast microsomal membrane
[7] = Selectivity ratio of IC50 for human CYP2C9 expressed in HEK293 cells to IC50 for human CYP1A2 expressed in HEK293 cells
Homo sapiens [8] = species on record: Homo sapiens; assay: Selectivity ratio of IC50 for human CYP3A4 bound to yeast microsomal membrane to IC50 for human CYP1A1 bound to yeast microsomal membrane
[9] = Selectivity ratio of IC50 for human CYP2C9 expressed in HEK293 cells to IC50 for human CYP1B1 expressed in HEK293 cells
[10] = Selectivity ratio of IC50 for human CYP2D6 expressed in HEK293 cells to IC50 for human CYP1A2 expressed in HEK293 cells
[11] = Selectivity ratio of IC50 for human CYP2C19 expressed in HEK293 cells to IC50 for human CYP1A1 expressed in HEK293 cells
Homo sapiens [12] = species on record: Homo sapiens; assay: Selectivity ratio of IC50 for human CYP2C9 bound to yeast microsomal membrane to IC50 for human CYP1A1 bound to yeast microsomal membrane
[13] = Selectivity ratio of IC50 for human CYP2D6 expressed in HEK293 cells to IC50 for human CYP1B1 expressed in HEK293 cells
[14] = Selectivity ratio of IC50 for human CYP3A4 expressed in HEK293 cells to IC50 for human CYP1A1 expressed in HEK293 cells
Cytochrome P450 1B1 [15] = target: T2, Cytochrome P450 1B1; assay: Inhibition of human CYP1B1 bound to yeast microsomal membrane using 7-ethoxyresorufin as substrate after 10 mins by fluorescence assay
Homo sapiens [16] = species on record: Homo sapiens; assay: Selectivity ratio of IC50 for human CYP2D6 bound to yeast microsomal membrane to IC50 for human CYP1A1 bound to yeast microsomal membrane
Cytochrome P450 2C19 = Cytochrome P450 2C19 (Homo sapiens, UniProt P33261); assay: Inhibition of human CYP2C19 expressed in HEK293 cells using fluorogenic 3-cyano-7-ethoxycoumarin as substrate preincubated for 30 mins followed by substrate addition measured for 60 mins by fluorescence assay; assay type: ADME, cell-based
[17] = target: T1, Aryl hydrocarbon receptor; assay: Antagonist activity at human AhR expressed in Saccharomyces cerevisiae W303-1A (ATCC 208352) transformed with an episomal plasmid containing a minimal CYC1 promoter, with a concatemer of five XRE enhancer sequences, linked to eGFP reporter gene and co-expressing ARNT assessed as inhibition of B[a]P agonist induced XRE-driven eGFP expression after 18 hrs by fluorescence assay; details: for inhibition (INH): human, 18 h
[18] = target: T1, Aryl hydrocarbon receptor; assay: Antagonist activity at human AhR expressed in Saccharomyces cerevisiae W303-1A (ATCC 208352) transformed with an episomal plasmid containing a minimal CYC1 promoter, with a concatemer of five XRE enhancer sequences, linked to eGFP reporter gene and co-expressing ARNT assessed as inhibition of B[a]P agonist induced XRE-driven eGFP expression by measuring eGFP units at 1 uM after 18 hrs by …

Sequence of Cytochrome P450 2C9 (P11712 whole entry): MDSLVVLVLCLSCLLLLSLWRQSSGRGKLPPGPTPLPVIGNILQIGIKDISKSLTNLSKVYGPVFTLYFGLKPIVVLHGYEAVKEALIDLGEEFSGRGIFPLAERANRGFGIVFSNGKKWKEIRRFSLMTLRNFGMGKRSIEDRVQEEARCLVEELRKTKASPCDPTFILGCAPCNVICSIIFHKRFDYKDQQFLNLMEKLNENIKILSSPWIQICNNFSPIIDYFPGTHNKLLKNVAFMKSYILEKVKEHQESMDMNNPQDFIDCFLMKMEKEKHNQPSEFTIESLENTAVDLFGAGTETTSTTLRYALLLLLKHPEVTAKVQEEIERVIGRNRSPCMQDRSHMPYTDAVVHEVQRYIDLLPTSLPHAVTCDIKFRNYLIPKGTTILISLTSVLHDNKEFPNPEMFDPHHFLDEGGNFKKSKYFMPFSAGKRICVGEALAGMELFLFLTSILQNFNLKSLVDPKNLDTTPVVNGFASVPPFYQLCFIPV
Sequence of Cytochrome P450 3A4 (P08684 whole entry): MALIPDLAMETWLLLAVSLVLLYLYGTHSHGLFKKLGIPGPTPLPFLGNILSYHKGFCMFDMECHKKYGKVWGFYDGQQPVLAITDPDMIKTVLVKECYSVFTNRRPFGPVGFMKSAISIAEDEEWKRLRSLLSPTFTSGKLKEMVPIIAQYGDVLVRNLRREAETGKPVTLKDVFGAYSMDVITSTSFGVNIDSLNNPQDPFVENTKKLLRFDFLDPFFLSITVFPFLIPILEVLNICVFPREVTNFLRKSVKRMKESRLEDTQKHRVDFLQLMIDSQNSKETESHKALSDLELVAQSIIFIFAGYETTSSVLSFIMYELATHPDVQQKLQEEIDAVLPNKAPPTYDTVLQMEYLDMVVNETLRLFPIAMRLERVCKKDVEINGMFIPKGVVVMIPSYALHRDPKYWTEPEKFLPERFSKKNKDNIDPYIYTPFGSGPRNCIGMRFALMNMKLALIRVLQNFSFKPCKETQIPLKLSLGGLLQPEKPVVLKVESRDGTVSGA
Sequence of Cytochrome P450 2C19 (P33261 whole entry): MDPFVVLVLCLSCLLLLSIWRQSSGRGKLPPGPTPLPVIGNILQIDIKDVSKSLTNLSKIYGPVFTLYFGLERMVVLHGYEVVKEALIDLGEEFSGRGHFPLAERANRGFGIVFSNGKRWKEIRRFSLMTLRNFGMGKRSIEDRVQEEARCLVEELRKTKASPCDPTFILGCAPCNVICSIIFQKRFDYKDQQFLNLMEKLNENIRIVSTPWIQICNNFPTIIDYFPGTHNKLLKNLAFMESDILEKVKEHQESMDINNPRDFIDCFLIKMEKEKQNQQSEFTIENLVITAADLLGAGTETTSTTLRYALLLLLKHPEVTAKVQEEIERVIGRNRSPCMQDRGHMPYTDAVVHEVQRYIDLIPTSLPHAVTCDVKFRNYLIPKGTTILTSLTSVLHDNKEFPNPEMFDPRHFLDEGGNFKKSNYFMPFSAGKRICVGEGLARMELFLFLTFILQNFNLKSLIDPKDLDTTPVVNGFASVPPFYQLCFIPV

| Structure (SMILES) | IC50 (Cytochrome P450 2C9) | Ratio IC50 (Homo sapiens [1]) | Ratio IC50 (Homo sapiens [2]) | Activity [3] | IC50 (Cytochrome P450 3A4) | Ratio IC50 (Homo sapiens [4]) | IC50 (Cytochrome P450 1B1 [5]) | Ratio IC50 (Homo sapiens [6]) | Ratio IC50 [7] | Ratio IC50 (Homo sapiens [8]) | Ratio IC50 [9] | Ratio IC50 [10] | Ratio IC50 [11] | Ratio IC50 (Homo sapiens [12]) | Ratio IC50 [13] | Ratio IC50 [14] | IC50 (Cytochrome P450 1B1 [15]) | Ratio IC50 (Homo sapiens [16]) | IC50 (Cytochrome P450 2C19) | Activity [18] | further results |
| --- | --- | --- | --- | --- | --- | --- | --- | --- | --- | --- | --- | --- | --- | --- | --- | --- | --- | --- | --- | --- | --- |
| COc1ccccc1/C=C/C(=O)c1ccc[nH]1 | > 10 µM | > 20 | > 20 | 220 U | > 10 µM | > 20 | 1.2 µM | > 20 | >20 | > 20 | >20 | >20 | >20 | > 20 | >20 | >20 | 0.9 µM | > 20 | > 10 µM | 600 U | IC50 [17]: 1.5 µM; inhibition (INH) [17]: Dose-dependent effect |
| O=C(/C=C/c1ccc(OC(F)(F)F)cc1)c1ccc[nH]1 | > 20 µM |  |  | 955 U | > 20 µM |  | > 20 µM |  |  |  |  |  |  |  |  |  | > 20 µM |  | > 20 µM | 955 U |  |
| O=C(/C=C/c1ccccc1Cl)c1ccc[nH]1 | > 10 µM | > 20 | > 20 | 770 U | > 10 µM | > 20 | 0.25 µM | > 20 | >20 | > 20 | >20 | >20 | >20 | > 20 | >20 | >20 | 0.2 µM | > 20 | > 10 µM | 920 U | IC50 [17]: 7.6 µM; inhibition (INH) [17]: Dose-dependent effect |
